Experiments:
F1F0-ATPase = target: T1, F1F0-ATPase (Bos taurus, UniProt P13621); assay: Inhibition of ATP synthesis by the F1F0-ATPase; format: biochemical
T1 construct: from tissue
Procedure: (§1) Compounds in Example 4 above were tested for activity against F1F0-ATPase by measuring ATP synthesis. In addition, the compounds were assessed for cytotoxicity in Ramos cells. Inhibition of ATP synthesis by the F1F0-ATPase and cytotoxicity in Ramos cells were measured according to the procedures described in K. M. Johnson et al. Chemistry & Biology 2005, 12, 485-496.

Ramos cells = assay: Cytotoxicity in Ramos cells; format: cell-based; details: Homo sapiens, read-out: Ramos cell EC50
Procedure: as §1

| Structure (SMILES) | IC50 (F1F0-ATPase) | EC50 (Ramos cells) |
| --- | --- | --- |
| O=C(/N=C(/NC1CCCCC1)N[C@H]1CC[C@H](Nc2ncccn2)CC1)c1ccc(F)c(F)c1 [Compound 87] | < 10 µM | < 10 µM |
| O=C(/N=C(/NCc1ccccc1Cl)N[C@H]1CC[C@H](Nc2ncccn2)CC1)c1ccc(F)c(F)c1 [Compound 90] | < 10 µM | < 10 µM |
| O=C(/N=C(/NCc1ccc(Cl)cc1)N[C@H]1CC[C@H](Nc2ncccn2)CC1)c1ccc(F)c(F)c1 [Compound 91] | < 10 µM | < 10 µM |
| O=C(/N=C(/NCc1ccccc1C(F)(F)F)N[C@H]1CC[C@H](Nc2ncccn2)CC1)c1ccc(F)c(F)c1 [Compound 92] | < 10 µM | < 10 µM |
| O=C(/N=C(/NCc1cccc(C(F)(F)F)c1)N[C@H]1CC[C@H](Nc2ncccn2)CC1)c1ccc(F)c(F)c1 [Compound 93] | < 10 µM | < 10 µM |
| CCOC(=O)N[C@H]1CC[C@H](N/C(=N\C(=O)c2ccc(F)c(F)c2)NC2CCC(F)(F)CC2)CC1 [Compound 95] | < 10 µM | > 10 µM |
| CS(=O)(=O)N[C@H]1CC[C@H](N/C(=N/C(=O)c2ccc(F)c(F)c2)Nc2cc(F)cc(Cl)c2)CC1 [Compound 96] | < 10 µM | < 10 µM |
| CS(=O)(=O)N[C@H]1CC[C@H](N/C(=N/C(=O)c2ccc(F)c(F)c2)Nc2cccc(Cl)c2)CC1 [Compound 97] | > 10 µM | < 10 µM |
| O=C(/N=C(/Nc1cc(F)cc(Cl)c1)N[C@H]1CC[C@@H](C(=O)O)CC1)c1ccc(F)c(F)c1 [Compound 99] | > 10 µM | > 10 µM |
| CC(=O)N[C@H]1CC[C@H](N/C(=N\C(=O)c2ccc(F)c(F)c2)Nc2cc(F)cc(Cl)c2)CC1 [Compound 100] | < 10 µM | < 10 µM |
| O=C(/N=C(/Nc1cc(F)cc(Cl)c1)N[C@H]1CC[C@H](NC(=O)C2CC2)CC1)c1ccc(F)c(F)c1 [Compound 101] | < 10 µM | < 10 µM |
| CC(C)(C)C(=O)N[C@H]1CC[C@H](N/C(=N\C(=O)c2ccc(F)c(F)c2)Nc2cc(F)cc(Cl)c2)CC1 [Compound 102] | < 10 µM | < 10 µM |
| CCOC(=O)N[C@H]1CC[C@H](N/C(=N\C(=O)c2ccc(F)c(F)c2)NC(C)(C)C)CC1 [Compound 103] | > 10 µM | > 10 µM |
| CCOC(=O)N[C@H]1CC[C@H](N/C(=N\C(=O)c2ccc(F)c(F)c2)NC2CC2)CC1 [Compound 104] | > 10 µM | > 10 µM |
| CCOC(=O)N[C@H]1CC[C@H](N/C(=N\C(=O)c2ccc(F)c(F)c2)NC(C)(C)C(F)(F)F)CC1 [Compound 105] | > 10 µM | > 10 µM |
| CCOC(=O)N[C@H]1CC[C@H](N/C(=N\C(=O)c2ccc(F)c(F)c2)NC2(C)CCC2)CC1 [Compound 106] | > 10 µM | > 10 µM |
| CCOC(=O)N[C@H]1CC[C@H](N/C(=N\C(=O)c2ccc(F)c(F)c2)NCC(F)(F)F)CC1 [Compound 107] | > 10 µM | > 10 µM |
| CCOC(=O)N[C@H]1CC[C@H](N/C(=N\C(=O)c2ccc(C(F)(F)F)cc2)NC(C)(C)C)CC1 [Compound 111] | < 10 µM | > 10 µM |
| O=C(/N=C(/NC1CCCC1)N[C@H]1CC[C@H](Nc2ncccn2)CC1)c1ccc(C(F)(F)F)cc1 [Compound 114] | < 10 µM | < 10 µM |

| Structure (SMILES) | IC50 (F1F0-ATPase) | EC50 (Ramos cells) |
| --- | --- | --- |
| O=C(/N=C(/Nc1cc(F)cc(Cl)c1)N[C@H]1CC[C@H](Nc2ncccn2)CC1)c1ccc(C(F)(F)F)cc1 [Compound 115] | < 10 µM | < 10 µM |
| O=C(/N=C(/Nc1cccc(C(F)(F)F)c1)N[C@H]1CC[C@H](Nc2ncccn2)CC1)c1ccc(C(F)(F)F)cc1 [Compound 116] | < 10 µM | < 10 µM |
| O=C(/N=C(/Nc1cc(F)cc(Cl)c1)N[C@H]1CC[C@H](Nc2ncccn2)CC1)c1ccc(Cl)cc1 [Compound 118] | < 10 µM | < 10 µM |
| O=C(/N=C(/Nc1cc(F)cc(Cl)c1)N[C@H]1CC[C@@H](Nc2ncccn2)CC1)c1ccc(F)c(F)c1 [Compound 120] | < 10 µM | < 10 µM |
| CC1(N/C(=N/C(=O)c2ccc(C(F)(F)F)cc2)N[C@H]2CC[C@H](Nc3ncccn3)CC2)CCCC1 [Compound 121] | < 10 µM | < 10 µM |
| CC1(N/C(=N/C(=O)c2ccc(Cl)cc2)N[C@H]2CC[C@H](Nc3ncccn3)CC2)CCCC1 [Compound 122] | < 10 µM | < 10 µM |
| O=C(/N=C(/Nc1cc(F)cc(Cl)c1)N[C@H]1CCCC[C@H]1O)c1ccc(C(F)(F)F)cc1 [Compound 123] | < 10 µM | < 10 µM |
| O=C(/N=C(/Nc1cc(F)cc(Cl)c1)NC1CCCC(Nc2ncccn2)C1)c1ccc(F)c(F)c1 (stereo not drawn) [Compound 124] | < 10 µM | < 10 µM |
| O=C(/N=C(/Nc1cc(F)cc(Cl)c1)N[C@H]1CCCC[C@@H]1O)c1ccc(F)c(F)c1 [Compound 129] | < 10 µM | < 10 µM |
| O=C(/N=C(/Nc1cccc(Cl)c1)N[C@H]1CC[C@H](NC(=O)c2cnccn2)CC1)c1ccc(F)c(F)c1 [Compound 131] | < 10 µM | < 10 µM |
| Cc1cc(C(=O)N[C@H]2CC[C@H](N/C(=N\C(=O)c3ccc(F)c(F)c3)Nc3cccc(Cl)c3)CC2)ccn1 [Compound 132] | < 10 µM | < 10 µM |
| O=C(/N=C(/Nc1cccc(Cl)c1)N[C@H]1CC[C@H](NC(=O)c2cccs2)CC1)c1ccc(F)c(F)c1 [Compound 133] | < 10 µM | < 10 µM |
| O=C(/N=C(/Nc1cccc(Cl)c1)N[C@H]1CC[C@H](NC(=O)c2ccccc2)CC1)c1ccc(F)c(F)c1 [Compound 134] | < 10 µM | < 10 µM |
| CN(C)C(=O)N[C@H]1CC[C@H](N/C(=N\C(=O)c2ccc(F)c(F)c2)Nc2cc(F)cc(Cl)c2)CC1 [Compound 135] | < 10 µM | < 10 µM |
| O=C(/N=C(/Nc1cc(F)cc(Cl)c1)N[C@H]1CC[C@H](NC(=O)N2CCOCC2)CC1)c1ccc(F)c(F)c1 [Compound 136] | < 10 µM | < 10 µM |
| O=C(/N=C(/Nc1cc(F)cc(Cl)c1)N[C@H]1CC[C@H](NC(=O)c2cccs2)CC1)c1ccc(F)c(F)c1 [Compound 139] | < 10 µM | < 10 µM |
| O=C(/N=C(/Nc1cc(F)cc(Cl)c1)N[C@H]1CC[C@H](NC(=O)c2ccccc2)CC1)c1ccc(F)c(F)c1 [Compound 140] | < 10 µM | < 10 µM |
| CC(C)(C)CN/C(=N/C(=O)c1ccc(F)c(F)c1)N[C@H]1CC[C@H](NC(=O)c2cccs2)CC1 [Compound 141] | < 10 µM | < 10 µM |

Further lines, with some results ahead:

| IC50 (F1F0-ATPase) | Structure (SMILES) | EC50 (Ramos cells) |
| --- | --- | --- |
| < 10 µM | CCOC(=O)N[C@H]1CC[C@@H](N/C(=N\C(=O)c2ccc(F)c(F)c2)Nc2cc(F)cc(Cl)c2)CC1 [Compound 85] | < 10 µM |
| < 10 µM | CC1CCC(N/C(=N/C(=O)c2ccc(F)c(F)c2)N[C@H]2CC[C@H](Nc3ncccn3)CC2)CC1 (stereo partly drawn) [Compound 86] | < 10 µM |
| < 10 µM | O=C(/N=C(/Nc1cccc(Cl)c1)N[C@H]1CC[C@H](Nc2ccccn2)CC1)c1ccc(F)c(F)c1 [Compound 88] | < 10 µM |
| < 10 µM | CCNC(=O)[C@H]1CC[C@@H](N/C(=N\C(=O)c2ccc(F)c(F)c2)Nc2cc(F)cc(Cl)c2)CC1 [Compound 89] | < 10 µM |
| < 10 µM | O=C(/N=C(/Nc1cccc(C(F)(F)F)c1)N[C@H]1CC[C@H](Nc2ncccn2)CC1)c1ccc(F)c(F)c1 [Compound 94] | < 10 µM |
| < 10 µM | CCOC(=O)N[C@H]1CC[C@H](N/C(=N/C(=O)c2ccc(F)c(F)c2)Nc2ccc(F)cc2C2CC2)CC1 [Compound 98] | < 10 µM |
| > 10 µM | CC(C)(C)N/C(=N/C(=O)c1ccc(F)c(F)c1)N[C@H]1CC[C@H](O)CC1 [Compound 108] | > 10 µM |
| > 10 µM | CCOC(=O)N[C@H]1CC[C@H](N/C(=N\C(=O)c2ccc(F)c(F)c2)NC2CCCC2)CC1 [Compound 109] | > 10 µM |
| < 10 µM | CCOC(=O)N[C@H]1CC[C@H](N/C(=N\C(=O)c2ccc(C(F)(F)F)cc2)NC2CCCC2)CC1 [Compound 110] | > 10 µM |
| > 10 µM | CC(C)(C)N/C(=N/C(=O)c1ccc(C(F)(F)F)cc1)N[C@H]1CC[C@H](Nc2ncccn2)CC1 [Compound 112] | > 10 µM |
| < 10 µM | CC1(N/C(=N/C(=O)c2ccc(C(F)(F)F)cc2)N[C@H]2CC[C@H](Nc3ncccn3)CC2)CCC1 [Compound 113] | < 10 µM |
| < 10 µM | O=C(/N=C(/Nc1cc(F)cc(Cl)c1)N[C@H]1CC[C@H](Nc2cnccn2)CC1)c1ccc(F)c(F)c1 [Compound 117] | < 10 µM |
| < 10 µM | O=C(/N=C(/Nc1cccc(C(F)(F)F)c1)N[C@H]1CC[C@H](Nc2ncccn2)CC1)c1ccc(Cl)cc1 [Compound 119] | < 10 µM |
| < 10 µM | CCOC(=O)N[C@H]1CCC[C@@H](N/C(=N\C(=O)c2ccc(F)c(F)c2)Nc2cc(F)cc(Cl)c2)C1 [Compound 125] | < 10 µM |
| < 10 µM | CCOC(=O)N[C@@H]1CCC[C@@H](N/C(=N\C(=O)c2ccc(F)c(F)c2)Nc2cc(F)cc(Cl)c2)C1 [Compound 126] | < 10 µM |
| < 10 µM | O=C(/N=C(/Nc1cc(F)cc(Cl)c1)N[C@H]1CCCC[C@H]1O)c1ccc(F)c(F)c1 [Compound 128] | < 10 µM |
| < 10 µM | O=C(/N=C(/Nc1cc(F)cc(Cl)c1)N[C@H]1CC[C@H](NC(=O)C(F)(F)F)CC1)c1ccc(F)c(F)c1 [Compound 130] | < 10 µM |
| < 10 µM | O=C(/N=C(/Nc1cc(F)cc(Cl)c1)N[C@H]1CC[C@H](NC(=O)N2CCCC2)CC1)c1ccc(F)c(F)c1 [Compound 137] | < 10 µM |
| < 10 µM | CC(C)(C)CN/C(=N/C(=O)c1ccc(F)c(F)c1)N[C@H]1CC[C@H](Nc2ncccn2)CC1 [Compound 138] | < 10 µM |
| < 10 µM | CC(C)(C)CN/C(=N/C(=O)c1ccc(F)c(F)c1)N[C@H]1CC[C@H](NC(=O)c2ccccc2)CC1 [Compound 142] | < 10 µM |

Source: US9169199B2, “Cycloalkyl guanidine F1F0-ATPase inhibitors and therapeutic uses thereof” (Lycera Corporation, priority 2010, dated 2015)
